Experimental data from patent US7914821B2, “Pharmaceutical composition for prevention and/or treatment of bone loss” (KO DA Pharmaceuticals Co., Ltd., priority 2008, dated 2011).

What was measured:
[1] = tested on: Bone cells; experiment: Cell viability (MTT); type: cell-based, rat; conditions: 0.3, 1, 3, 10 μM, 48 hrs, FIG. 7A
Procedure: (§1) Rat primary osteoblast was isolated from the parietal bone of gestation day 18 embryos of Sprague-Dawley rats. After being slaughtered, the embryo rats were obtained from the uteruses of the rats, and calvarium was isolated from the embryo rats. Parietal bone was cut from the calvarium and digested by 0.1% collagenase for 20 minutes to release the bone cells from the bone tissue. The digestion step was repeated five times. The collected bone cells were cultured in α-MEM containing 1% penicillin-streptomycin and 10% FBS in a humidified atmosphere of 5 percent carbon dioxide. When cells were attached and confluence, they were sub-cultured, which was called “passage 2 (P2)”. The passage was for analogizing. 2 to 5 passage cells were used for the experiments.
Bone cells were cultured in 96-well plate and treated with 0.3, 1, 3, and 10 μM of imperatorin and bergapten for 48 hrs, respectively. After treatment, the cells were reacted with MTT solution (0.5 mg/ml) at 37° C. for 30 minutes, lysed in 100 μl DMSO, and then absorbance was measured at […]. The cell viability in the control group which was treated with 0.1% DMSO was defined as 100%.

[2] = tested on: Bone cells; experiment: ALP activity of bone cells; type: cell-based, rat; conditions: for ALP activity of the bone cells: 0.3, 1, 3, 10 μM, FIG. 8A
From the text: Rat primary osteoblast was isolated from the parietal bone of gestation day 18 embryos of Sprague-Dawley rats. After being slaughtered, the embryo rats were obtained from the uteruses of the rats, and calvarium was isolated from the embryo rats. […] The digestion step was repeated five times. […] When cells were attached and confluence, they were sub-cultured, which was called “passage 2 (P2)”. The passage was for analogizing. 2 to 5 passage cells were used for the experiments. Bone cells were treated with 0.3, 1, 3, and 10 μM of imperatorin and bergapten, respectively. After treatment, the osteoblast cells were digested in 0.2% NP-40 solution, and then centrifuged at 1500 g for 5 minutes. The ALP activity of the osteoblast cells was tested using an ALP kit (Roche Applied Science). […] Referring to FIG. 8A, imperatorin and bergapten both increased the ALP activity of the bone cells.

[3] = tested on: SMADs; experiment: Phosphorylation of SMADs (western blot); type: cell-based, rat; conditions: 10 μM, 1, 3, 6, 12, 24 hrs; FIG. 10
Procedure: as §1
(§2) Bone cells was cultured in 6-well plate and treated with 10 μM of imperatorin and bergapten for 1, 3, 6, 12, and 24 hrs, respectively. […] Following incubation with the secondary antibody, the membrane was washed three times with PBST, and detected by an […] chemiluminescence using an ECL blotting substrate according to the manufacturer's instructions. […]

[4] = tested on: p38; experiment: Phosphorylation of p38 (western blot); type: cell-based, rat; conditions: 10 μM, 1, 3, 6, 12, 24 hrs; FIG. 10
Procedure: as §1, §2

[5] = tested on: p38 mutant cell (DN-p38); experiment: ALP activity in p38 mutant cell; type: cell-based; conditions: 10 μM; FIG. 11D
Procedure: (§3) Bone cells were cultured and treated with (1) 10 μM SB203580, (2) 10 μM PD98059, (3) 10 μM imperatori, (4) 10 μM bergapten, (5) 10 μM imperatorin+SB203580, (6) 10 μM bergapten+SB203580, (7) 10 μM imperatorin+PD98059 ? (8) 10 μM bergapten+PD98059 for 48 hrs. After treatment, the bone cells were lysed in 0.2% […] solution and centrifuged at 1500×g for 5 minutes. The supernatant was analyzed by an ALP kit such as described above to obtain the ALP activity. The ALP activity in the control group which was treated with 0.1% DMSO was defined as 100%. Referring to FIG. 11C, p38 inhibitor (SB203580) and ERK inhibitor (PD98059) suppressed the imperatorin and bergapten induced-ALP activity.
(§4) The same procedure carried out in Example 20 was repeated. The experiment group used alternative cells and treatment comprising: (1) DN-p38 cell, (2) DN-ERK cell, (3) DN-p38 cell+10 μM imperatorin, (4) DN-p38 cell+10 μM bergapten, (5) DN-ERK cell+10 μM imperatorin, (6) DN-ERK cell+10 μM bergapten, (7) normal bone cell+10 μM imperatorin, and (8) normal bone cell+10 μM bergapten. The ALP activity in the control group which was treated with 0.1% DMSO was defined as 100%. Referring to FIG. 11D, the ALP activity was not induced in p38 mutant cell (DN-p38) and ERK mutant cell (DN-ERK) by imperatorin and bergapten.

[6] = tested on: ERK mutant cell (DN-ERK); experiment: ALP activity in ERK mutant cell; type: cell-based; conditions: 10 μM; FIG. 11D
Procedure: as §3, §4

COc1c2ccoc2cc2oc(=O)ccc12 [bergapten]
cell viability [1]: did not suppress
ALP activity of the bone cells [2]: increased
increase of alkaline phosphatase (ALP) activity ([2]; 'at least' figure): ≥ 80.0%
phosphorylation of SMADs [3]: induced
phosphorylation of p38 [4]: induced
ALP activity in p38 mutant cell (DN-p38) [5]: not induced
ALP activity in ERK mutant cell (DN-ERK) [6]: not induced

CC(C)=CCOc1c2occc2cc2ccc(=O)oc12 [imperatorin]
ALP activity of the bone cells [2]: increased
increase of alkaline phosphatase (ALP) activity ([2]; 'at least' figure): ≥ 6.0%
increase of alkaline phosphatase (ALP) activity ([2]; 'preferably ... at least' figure): at least 95%
phosphorylation of SMADs [3]: induced
phosphorylation of p38 [4]: induced
ALP activity in p38 mutant cell (DN-p38) [5]: not induced
ALP activity in ERK mutant cell (DN-ERK) [6]: not induced
